Measured values taken from US20260216294A1, “BETA 2-ADRENERGIC RECEPTOR AGONISTS FOR TREATMENT OR PREVENTION OF MUSCLE WASTING” (ATROGI AB, priority 2023, published 2026).

Assays:
L6-myotubes [1] = assay: Glucose uptake in differentiated L6-myotubes (Biological Example 2); assay type: cell-based; settings: read-out: Biological example 2 (GU)
In short: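 Differentiated L6 myotubes were serum-starved overnight in 0.5% fatty-acid-free BSA and then stimulated with compound or isoprenaline at 1×10^−5 M final. After 1 h 40 min cells were washed and re-dosed in glucose-free medium. Twenty minutes later, uptake of 50 nM ^3H-2-deoxyglucose over 10 min was measured by scintillation counting of NaOH lysates.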

L6-myotubes [2] = assay: Measurement of intracellular cAMP levels in differentiated L6-myotubes (Biological Example 3); assay type: cell-based; settings: 0.25 h
In short: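 Serum-starved differentiated L6 myotubes stimulated 15 min with test compound at 1×10^−5 M final (isoprenaline as reference) in HBSS with 1% BSA, 5 mM HEPES, 1 mM IBMX, pH 7.4. Cells EtOH-extracted, lysed, and intracellular cAMP measured by AlphaScreen.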

[3] = glucose uptake in differentiated L6-myotubes, compound at 10 μM, activity relative to isoproterenol at 10 μM
[4] = intracellular cAMP in differentiated L6-myotubes, compound at 10 μM, activity relative to isoproterenol at 10 μM
[5] = glucose uptake, compound at 10 μM relative to isoproterenol at 10 μM
[6] = intracellular cAMP, compound at 10 μM relative to isoproterenol at 10 μM

SMILES	Emax at 10 µM (L6-myotubes [1]; [3])	Emax at 10 µM (L6-myotubes [2]; [4])	Emax at 10 µM (L6-myotubes [1]; [5])	Emax at 10 µM (L6-myotubes [2]; [6])
CC1(C)CC[C@H]([C@@H](O)c2cccc(N)c2F)N1 [Compound 226, (S)-[(R)-5,5-dimethyl-2-pyrrolidinyl](3-amino-2-fluorophenyl)methanol]	25 to 50%	< 25%		
CC(C)(C[C@H]1CC[C@H](NC(=O)c2ccccc2)CC1)NC[C@H](O)c1cccc(F)c1 [Compound 384]	> 75%	> 75%		
Cn1ccc([C@@H](O)CNC(C)(C)C)cc1=O [Compound 98, 4-[(R)-2-(tert-butylamino)-1-hydroxyethyl]-1-methyl-2(1H)-pyridinone]			> 75%	< 25%
CC(C)(CC[C@H]1CC[C@H](C(=O)O)CC1)NC[C@H](O)c1cccc(F)c1 [Compound 348, (1R,4r)-4-{3-[(R)-2-(m-fluorophenyl)-2-hydroxyethylamino]-3-methylbutyl} cyclohexanecarboxylic acid]	< 25%	< 25%		
CO[C@H]1CC[C@@H](C(C)(C)NC[C@H](O)c2cccc(F)c2)CC1 [Compound 251, (R)-1-(m-fluorophenyl)-2-{1-methyl-1-[(1s,4S)-4-methoxycyclohexyl]ethylamino}-1-ethanol]	< 25%	< 25%		
CCCCNCC(O)c1ccc(F)c(F)c1 (stereo not drawn) [Compound 56, 2-(butylamino)-1-(3,4-difluorophenyl)-1-ethanol]			50 to 75%	< 25%
CC(C)(C[C@H]1CC[C@H](NC(=O)OC(C)(C)C)CC1)NC[C@H](O)c1cccc(F)c1 [Compound 420, (1R,4r)-4-{2-[(R)-2-(m-fluorophenyl)-2-hydroxyethylamino]-2-methylpropyl}cyclohexy-2-methyl-2-propanecarbamate]	50 to 75%	25 to 50%		
CCC[C@@H]1CCC[C@H]([C@H](O)c2ccc(F)cc2)N1 [Compound 94]			50 to 75%	< 25%
CC1(C)CC[C@H]([C@@H](O)c2cc(F)c(N)c(F)c2)N1 [Compound 236]	> 75%	25 to 50%		
CCOC(=O)CO[C@H]1CC[C@H](C(C)(C)NC[C@H](O)c2cccc(F)c2)CC1 [Compound 398, ethyl[[(1R,4r)-4-{1-[(R)-2-(m-fluorophenyl)-2-hydroxyethylamino]-1-methylethyl}cyclohexyloxy]]acetate]	> 75%	< 25%		
CC1(C)C[C@H]([C@H](O)c2cccc(Cl)c2)N1 [Compound 230]	> 75%	< 25%		
CC(=O)N[C@H]1CC[C@@H](CC(C)(C)NC[C@H](O)c2cncc(F)c2)CC1 [Compound 467]	> 75%	< 25%		
CCC[C@H]1CCC[C@H]([C@@H](O)c2cncc(F)c2)N1 [Compound 139]			< 25%	< 25%
CC(C)(C[C@H]1CC[C@@H](NS(C)(=O)=O)CC1)NC[C@H](O)c1cccc(F)c1 [Compound 453, (R)-2-{1,1-dimethyl-2-[(1s,4S)-4-(mesylamino)cyclohexyl]ethylamino}-1-(m-fluorophenyl)-1-ethanol]	> 75%	< 25%		
CC(C)(NC[C@H](O)c1cncc(F)c1)[C@H]1CC[C@@H](O)CC1 [Compound 286, (R)-1-(5-fluoro-3-pyridyl)-2-{1-methyl-1-[(1s,4S)-4-hydroxycyclohexyl]ethylamino}-1-ethanol]	25 to 50%	< 25%		
CC(C)(C[C@H]1CC[C@@H](NC(=O)C2CCC2)CC1)NC[C@H](O)c1cccc(F)c1 [Compound 448]	50 to 75%	< 25%		
CC(=O)N[C@H]1CC[C@@H](C[C@@H]2CC[C@H]([C@H](O)c3cccc(F)c3)N2)CC1 [Compound 484]	50 to 75%	< 25%		
CCCC(C)NCC(O)c1cc(Cl)c(O)c(Cl)c1 (stereo not drawn) [Compound 25, 1-(3,5-dichloro-4-hydroxyphenyl)-2-(1-methylbutylamino)-1-ethanol]			< 25%	< 25%
